Source: ChEMBL document CHEMBL4190342, “Identifying novel factor XIIa inhibitors with PCA-GA-SVM developed vHTS models” (Eur J Med Chem, 2017)

Columns and labels:
[1] = target: T1, Coagulation factor XII (Homo sapiens, UniProt P00748); test: Inhibition of human factor 12a using Boc-Gly-Gln-Arg-AMC substrate incubated for 1 hr by fluorescence assay
T1 sequence (P00748 whole entry): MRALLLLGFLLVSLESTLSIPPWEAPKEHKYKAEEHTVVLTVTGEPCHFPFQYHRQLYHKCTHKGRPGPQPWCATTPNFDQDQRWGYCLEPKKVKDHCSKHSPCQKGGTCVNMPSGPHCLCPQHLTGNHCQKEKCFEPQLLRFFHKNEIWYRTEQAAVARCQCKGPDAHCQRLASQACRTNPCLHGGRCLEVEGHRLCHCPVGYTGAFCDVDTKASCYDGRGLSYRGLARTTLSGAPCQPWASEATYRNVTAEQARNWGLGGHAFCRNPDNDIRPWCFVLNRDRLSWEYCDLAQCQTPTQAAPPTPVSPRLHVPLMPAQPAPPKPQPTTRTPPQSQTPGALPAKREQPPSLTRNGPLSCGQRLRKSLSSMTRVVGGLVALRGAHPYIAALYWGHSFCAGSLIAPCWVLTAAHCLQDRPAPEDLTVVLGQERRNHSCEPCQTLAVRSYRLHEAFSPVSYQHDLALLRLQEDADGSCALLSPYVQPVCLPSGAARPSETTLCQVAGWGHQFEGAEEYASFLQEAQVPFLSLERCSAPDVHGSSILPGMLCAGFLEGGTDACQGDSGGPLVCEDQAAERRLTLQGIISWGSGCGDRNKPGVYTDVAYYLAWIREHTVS

[2] = target: T1, Coagulation factor XII; test: Inhibition of human factor 12a using Boc-Gly-Gln-Arg-AMC substrate incubated for 1 hr in presence of 0.01% Tween20 surfactant by fluorescence assay
[3] = target: T1, Coagulation factor XII; test: Inhibition of human factor 12a using Boc-Gly-Gln-Arg-AMC substrate incubated for 1 hr in presence of 0.02% Tween20 surfactant by fluorescence assay
[4] = target: T1, Coagulation factor XII; test: Inhibition of human factor 12a using Boc-Gly-Gln-Arg-AMC substrate incubated for 1 hr in presence of 0% Tween20 surfactant by fluorescence assay

| IC50 [1] [µM] | Compound | also measured |
| --- | --- | --- |
| > 50 | COc1ccc(/C=C(\C#N)c2nc3ccc(C)cc3[nH]2)cc1 |  |
| > 50 | Cc1ccc(/C=C(\C#N)c2nc3ccccc3[nH]2)cc1 |  |
| > 50 | COc1cccc(/C=C(\C#N)c2nc3ccccc3[nH]2)c1 |  |
| > 50 | N#C/C(=C\c1ccccc1)c1nc2ccccc2[nH]1 |  |
| > 50 | Cc1ccc2nc(/C(C#N)=C/c3ccccc3)[nH]c2c1 |  |

The next lines start with the compound.

| Compound | IC50 [1] [µM] | also measured |
| --- | --- | --- |
| O=C(c1ccco1)n1nnc2ccccc21 | 34.1 |  |
| COc1cc(OC)cc(C(=O)n2nnc3ccccc32)c1 | 25.4 |  |
| O=C(c1ccc(Cl)cc1)n1nnc2ccccc21 | 31.7 |  |
| COc1ccccc1C(=O)n1nnc2ccccc21 | 7.21 |  |
| COC(=O)c1ccc(/C=C(\C#N)c2nc3ccc(C)cc3[nH]2)cc1 | > 50 |  |
| O=C(c1ccc(Br)cc1)n1nnc2ccccc21 | 0.6 |  |
| COc1ccc(/C=C(\C#N)c2nc3ccccc3[nH]2)cc1OC | > 50 |  |
| COc1ccccc1C(=O)n1nc(-c2cccnc2)nc1N | 0.68 | IC50 [2]: 2.63 µM; IC50 [3]: 2.43 µM; IC50 [4]: 1.85 µM |
